Values after ≈ are worked out from the molar mass of the structure shown.
Tested on: Mycobacterium tuberculosis variant bovis
Test: microbe, parasite or virus in culture
Type: functional
Conditions: ATCC 35734, 168 h

COc1ccc(/C=C/C(=O)c2cccc(Br)c2)cc1
MIC90: 9.38 µM (≈ 2.98 µg/mL)

COc1ccc(/C=C/C(=O)c2cccc(I)c2)cc1
MIC90: 9.47 µM (≈ 3.45 µg/mL)

COc1ccc(/C=C/C(=O)c2ccc(-c3ccccc3)cc2)cc1
MIC90: > 10 µM

CN(C)c1ccc(/C=C/C(=O)c2ccc(-c3ccccc3)cc2)cc1
MIC90: > 10 µM

O=C(/C=C/c1ccc([N+](=O)[O-])o1)c1ccc(N2CCCC2)cc1
MIC90: 2.18 µM (≈ 0.681 µg/mL)

CC(C)(C)c1ccc(C(=O)/C=C/c2ccc([N+](=O)[O-])s2)cc1
MIC90: 0.5 µM (≈ 0.158 µg/mL)

Cc1cccc(C(=O)/C=C/c2ccc([N+](=O)[O-])o2)c1
MIC90: > 10 µM

O=C(/C=C/c1ccc([N+](=O)[O-])cc1)c1ccc(N2CCCCC2)cc1
MIC90: > 10 µM

Cc1ccc(C(=O)/C=C/c2ccc([N+](=O)[O-])s2)cc1
MIC90: 0.98 µM (≈ 0.268 µg/mL)

O=C(/C=C/c1ccc([N+](=O)[O-])o1)c1ccc(I)cc1
MIC90: 2.57 µM (≈ 0.949 µg/mL)

O=C(/C=C/c1ccc([N+](=O)[O-])s1)c1ccc(C2CCCCC2)cc1
MIC90: 2.38 µM (≈ 0.813 µg/mL)

O=C(/C=C/c1ccc([N+](=O)[O-])s1)c1ccc(N2CCOCC2)cc1
MIC90: 9.12 µM (≈ 3.14 µg/mL)

CC(C)(C)c1ccc(C(=O)/C=C/c2ccco2)cc1
MIC90: > 10 µM

Cc1ccccc1C(=O)/C=C/c1ccc([N+](=O)[O-])o1
MIC90: 0.27 µM (≈ 0.0695 µg/mL)

CSc1ccc(C(=O)/C=C/c2ccc([N+](=O)[O-])s2)cc1
MIC90: 0.56 µM (≈ 0.171 µg/mL)

O=C(/C=C/c1ccco1)c1ccc(N2CCCCC2)cc1
MIC90: > 10 µM

O=C(/C=C/c1ccc([N+](=O)[O-])o1)c1ccc(-c2ccccc2)cc1
MIC90: 0.59 µM (≈ 0.188 µg/mL)

O=C(/C=C/c1ccc([N+](=O)[O-])s1)c1ccc(-n2ccnc2)cc1
MIC90: 0.23 µM (≈ 0.0748 µg/mL)

CSc1ccc(C(=O)/C=C/c2ccco2)cc1
MIC90: > 10 µM

CCCCc1ccc(C(=O)/C=C/c2ccc([N+](=O)[O-])s2)cc1
MIC90: 1.64 µM (≈ 0.517 µg/mL)

O=C(/C=C/c1cccc([N+](=O)[O-])c1)c1ccc(N2CCCCC2)cc1
MIC90: > 10 µM

CCCCc1ccc(C(=O)/C=C/c2ccc([N+](=O)[O-])o2)cc1
MIC90: 0.36 µM (≈ 0.108 µg/mL)

O=C(/C=C/c1ccc(Cl)s1)c1ccc(-n2ccnc2)cc1
MIC90: 9.52 µM (≈ 3 µg/mL)

O=C(/C=C/c1ccc([N+](=O)[O-])o1)c1cccc(Br)c1
MIC90: 0.18 µM (≈ 0.058 µg/mL)

CSc1ccc(C(=O)/C=C/c2ccc([N+](=O)[O-])o2)cc1
MIC90: 0.26 µM (≈ 0.0752 µg/mL)

CC(C)(C)c1ccc(C(=O)/C=C/c2ccc[nH]2)cc1
MIC90: > 10 µM

From ChEMBL document CHEMBL4118066, “QSAR-driven design, synthesis and discovery of potent chalcone derivatives with antitubercular activity” (Eur J Med Chem, 2017)
